Source: the NIST ThermoML archive (doi:10.1016/j.fluid.2018.10.006)

Settings: Fluid (supercritical or subcritical phases), Coaxial cylinder method

CCCCCC [hexane]
thermal conductivity [W/m/K]
Settings | 509.85 K | 510.36 K
245 kPa | – | 0.0379
1000 kPa | – | 0.03854
2245 kPa | – | 0.04183
2715 kPa | – | 0.04665
2965 kPa | 0.05466 | –
2970 kPa | 0.05502 | –
2975 kPa | 0.05557 | –
2980 kPa | 0.05557 | –
2985 kPa | 0.05595 | –
2990 kPa | 0.05595 | –
2995 kPa | 0.05651 | –
3000 kPa | 0.0569 | –
3005 kPa | 0.05749 | –
3010 kPa | 0.05788 | –
3015 kPa | 0.05829 | –
3020 kPa | 0.05869 | –
3025 kPa | 0.05975 | –
3030 kPa | 0.05975 | –
3035 kPa | 0.05975 | –
3040 kPa | 0.06085 | –
3045 kPa | 0.0613 | –
3050 kPa | 0.0618 | –
3055 kPa | 0.06256 | –
3060 kPa | 0.06305 | –
3065 kPa | 0.06429 | –
3070 kPa | 0.06507 | –
3080 kPa | 0.06696 | –
3085 kPa | 0.06809 | –
3090 kPa | 0.06955 | –
3095 kPa | 0.07139 | –
3100 kPa | 0.07333 | –
3105 kPa | 0.07573 | –
3110 kPa | 0.07753 | 0.06796
3112 kPa | – | 0.06824
3114 kPa | – | 0.06881
3115 kPa | 0.08101 | –
3116 kPa | – | 0.06939
3118 kPa | – | 0.07027
3120 kPa | 0.08569 | 0.07087
3122 kPa | – | 0.07148
3124 kPa | – | 0.07242
3125 kPa | 0.08932 | –
3126 kPa | – | 0.07338
3128 kPa | – | 0.07403
3130 kPa | 0.09098 | 0.0747
3132 kPa | – | 0.07538
3133 kPa | – | 0.07607
3134 kPa | – | 0.07624
3135 kPa | 0.09203 | –
3137 kPa | – | 0.0784
3138 kPa | – | 0.07915
3139 kPa | – | 0.07991
3140 kPa | 0.08826 | 0.08056
3141 kPa | – | 0.08119
3142 kPa | – | 0.08199
3143 kPa | – | 0.08268
3144 kPa | – | 0.0833
3145 kPa | 0.08512 | 0.08393
3146 kPa | – | 0.08457
3147 kPa | – | 0.08501
3148 kPa | – | 0.08552
3150 kPa | 0.0829 | 0.08631
3151 kPa | – | 0.08656
3152 kPa | – | 0.08673
3153 kPa | – | 0.08695
3154 kPa | – | 0.08709
3155 kPa | 0.08149 | 0.087
3156 kPa | – | 0.08691
3157 kPa | – | 0.08682
3158 kPa | – | 0.08656
3159 kPa | – | 0.08634
3160 kPa | 0.07984 | 0.08604
3161 kPa | – | 0.08582
3162 kPa | – | 0.08548
3163 kPa | – | 0.08518
3164 kPa | – | 0.08476
3166 kPa | – | 0.08393
3168 kPa | – | 0.0832
3170 kPa | 0.07755 | 0.08248
3172 kPa | – | 0.08173
3174 kPa | – | 0.08088
3176 kPa | – | 0.08019
3178 kPa | – | 0.07941
3180 kPa | 0.07646 | 0.07883
3182 kPa | – | 0.07826
3184 kPa | – | 0.07767
3186 kPa | – | 0.07716
3188 kPa | – | 0.07654
3190 kPa | 0.07505 | 0.076
3192 kPa | – | 0.07563
3194 kPa | – | 0.07525
3196 kPa | – | 0.07489
3198 kPa | – | 0.07452
3200 kPa | 0.07436 | 0.07416
3202 kPa | – | 0.0738
3204 kPa | – | 0.07362
3206 kPa | – | 0.07337
3208 kPa | – | 0.07309
3210 kPa | 0.07368 | 0.07292
3212 kPa | – | 0.07274
3214 kPa | – | 0.0724
3216 kPa | – | 0.0724
3218 kPa | – | 0.07206
3220 kPa | 0.07319 | 0.07206
3222 kPa | – | 0.07189
3225 kPa | – | 0.07175
3228 kPa | – | 0.07155
3230 kPa | 0.07264 | –
3240 kPa | 0.07251 | –
3250 kPa | 0.07211 | –
3260 kPa | 0.07181 | –
3270 kPa | 0.07177 | –
3280 kPa | 0.07145 | –
3290 kPa | 0.07134 | –
3300 kPa | 0.07091 | –
3310 kPa | 0.07096 | –
3320 kPa | 0.07054 | –
3330 kPa | 0.07035 | –
3340 kPa | 0.06992 | –
3390 kPa | 0.06989 | –
3400 kPa | 0.06989 | –
3450 kPa | 0.06947 | –
3500 kPa | 0.06961 | –
3600 kPa | 0.06975 | –
3800 kPa | 0.07031 | –
4000 kPa | 0.07061 | –
4200 kPa | 0.07105 | –
4400 kPa | 0.07134 | –
4600 kPa | 0.07179 | –
4800 kPa | 0.07215 | –
5000 kPa | 0.07254 | –
5200 kPa | 0.07285 | –
5400 kPa | 0.07315 | –
5600 kPa | 0.07355 | –
5800 kPa | 0.07393 | –
6000 kPa | 0.07421 | –
6200 kPa | 0.07453 | –
6400 kPa | 0.07484 | –
6600 kPa | 0.07514 | –
6800 kPa | 0.07543 | –
7000 kPa | 0.0757 | –
7200 kPa | 0.07596 | –
7400 kPa | 0.07619 | –
7600 kPa | 0.07646 | –
7800 kPa | 0.07673 | –
8000 kPa | 0.07679 | –
8200 kPa | 0.07703 | –
8500 kPa | 0.07741 | –
9000 kPa | 0.07802 | –
9500 kPa | 0.07856 | –
10000 kPa | 0.0791 | –
